Results published in patent US20150105252A1, “SUBSTITUTED PYRAZOLES AS HERBICIDES” (E I DU PONT DE NEMOURS AND COMPANY, priority 2013, published 2015).

Assays:
galium = test: Test C preemergence; assay type: in vivo, Galium aparine; settings: for Galium plant response rating / Plant response rating, Galium: preemergence; for Plant response rating, Galium: 125 g ai/ha, scale 0 to 100, 0 = no effect, 100 = complete control
Procedure, shortened: (§1)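 Greenhouse pot test: preemergence application onto freshly seeded loam/sand mix, postemergence application onto seedlings (1–4 leaves, 2–18 cm) in peat-vermiculite substrate. Responses scored visually 13 to 15 days later relative to controls, where 0 means no effect and 100 means complete control; a dash indicates no result.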

soybean = test: Test C preemergence; assay type: in vivo, Glycine max; settings: for Soybean plant response rating / Plant response rating, Soybean: preemergence; for Plant response rating, Soybean: 125 g ai/ha, scale 0 to 100, 0 = no effect, 100 = complete control
Procedure, shortened: as §1

sedge, umbrella = test: Test B flood; assay type: in vivo, Cyperus difformis; settings: 250 g ai/ha, visual rating on 0 to 100 scale (0 no effect, 100 complete control), 13 to 15 days
Procedure, shortened: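 Response scored visually, 0–100 relative to controls, 13–15 days after the compound was applied into paddy water; plants were at the 2-leaf stage in pots kept flooded to 3 cm.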

pigweed [1] = test: Test A preemergence; assay type: in vivo, Amaranthus retroflexus; settings: preemergence; for Pigweed plant response rating (0 to 100 scale): visual injury approx. 10 days after treatment
Procedure, shortened: (§2)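 Injury readout: eye-scored versus untreated controls, 0 to 100. Exposure period: ~10 days, greenhouse. Application: soil-directed spray over sown seed (pre) or spray on seedlings 2–10 cm tall with one or two leaves (post), compound carried in non-phytotoxic solvent including surfactant.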

velvetleaf = test: Test A postemergence; assay type: in vivo, Abutilon theophrasti
Procedure, shortened: as §2

corn = test: Test A postemergence; assay type: in vivo, Zea mays
Procedure, shortened: as §2

crabgrass, large = test: Test C preemergence; assay type: in vivo, Digitaria sanguinalis; settings: for Crabgrass, Large plant response rating / Plant response rating, Crabgrass, Large: preemergence; for Plant response rating, Crabgrass, Large: 125 g ai/ha, scale 0 to 100, 0 = no effect, 100 = complete control
Text: (§3) Seeds of plant species selected from blackgrass (Alopecurus myosuroides), ryegrass, Italian (Italian ryegrass, Lolium multiflorum), wheat (winter wheat, Triticum aestivum), galium (catchweed bedstraw, Galium aparine), corn (Zea mays), crabgrass, large (large crabgrass, Digitaria sanguinalis), foxtail, giant (giant foxtail, Setaria faberii), johnsongrass (Sorghum halepense), lambsquarters (Chenopodium album), morningglory (Ipomoea coccinea), nutsedge, yellow (yellow nutsedge, Cyperus esculentus), pigweed (redroot pigweed, Amaranthus retroflexus), ragweed (common ragweed, Ambrosia elation), soybean (Glycine max), barnyardgrass (Echinochloa crus-galli), oilseed rape (Brassica napus), waterhemp (common waterhemp, Amaranthus rudis), oat, wild (wild oat, Avena fatua), kochia (Kochia scoparia), Surinam grass (Brachiaria decumbens), foxtail, green (green foxtail, Setaria viridis), goosegrass (Eleusine indica), bromegrass, downy (downy bromegrass, Bromus tectorum), nightshade (eastern black nightshade, Solanum ptycanthum), cocklebur (common cocklebur, Xanthium strumarium), cupgrass, woolly (woolly cupgrass, Eriochloa villosa), bermudagrass (Cynodon dactylon), sunflower, (common oilseed sunflower, Helianthus annuus), Russian thistle (Salsola kali), and velvetleaf (Abutilon theophrasti) were planted into a blend of loam soil and sand and treated preemergence with test chemicals formulated in a non-phytotoxic solvent mixture which included a surfactant.
(§4) At the same time, plants selected from these crop and weed species and also chickweed (common chickweed, Stellaria media), canarygrass (littleseed canarygrass, Phalaris minor), and deadnettle (henbit deadnettle, Lamium amplexicaule), were planted in pots containing Redi-Earth® planting medium (Scotts Company, 14111 Scottslawn Road, Marysville, Ohio 43041) comprising spaghnum peat moss, vermiculite, wetting agent and starter nutrients and treated with postemergence applications of test chemicals formulated in the same manner. Plants ranged in height from 2 to 18 cm (1- to 4-leaf stage) for postemergence treatments. Treated plants and controls were maintained in a greenhouse for 13 to 15 days, after which time all species were compared to controls and visually evaluated. Plant response ratings, summarized in Table C, are based on a scale of 0 to 100 where 0 is no effect and 100 is complete control. A dash (-) response means no test result.

pigweed [2] = test: Test C preemergence; assay type: in vivo, Amaranthus retroflexus; settings: for Pigweed plant response rating / Plant response rating, Pigweed: preemergence; for Plant response rating, Pigweed: 125 g ai/ha, scale 0 to 100, 0 = no effect, 100 = complete control
Procedure, shortened: as §1

nutsedge, yellow = test: Test C preemergence; assay type: in vivo, Cyperus esculentus; settings: for Nutsedge, Yellow plant response rating / Plant response rating, Nutsedge, Yellow: preemergence; for Plant response rating, Nutsedge, Yellow: 125 g ai/ha, scale 0 to 100, 0 = no effect, 100 = complete control
Text: as §3, §4

ryegrass, Italian = test: Test C preemergence; assay type: in vivo, Lolium multiflorum; settings: for Ryegrass, Italian plant response rating / Plant response rating, Ryegrass, Italian: preemergence; for Plant response rating, Ryegrass, Italian: 125 g ai/ha, scale 0 to 100, 0 = no effect, 100 = complete control
Text: as §3, §4

morningglory [3] = test: Test C preemergence; assay type: in vivo, Ipomoea coccinea; settings: for Morningglory plant response rating / Plant response rating, Morningglory: preemergence; for Plant response rating, Morningglory: 125 g ai/ha, scale 0 to 100, 0 = no effect, 100 = complete control
Procedure, shortened: as §1

morningglory [4] = test: Test A postemergence; assay type: in vivo, Ipomoea spp.
Procedure, shortened: as §2

foxtail, giant = test: Test A postemergence; assay type: in vivo, Setaria faberii
Procedure, shortened: as §2

morningglory [5] = test: Test A preemergence; assay type: in vivo, Ipomoea spp.; settings: preemergence; for Morningglory plant response rating (0 to 100 scale): visual injury approx. 10 days after treatment
Procedure, shortened: as §2

[6] = 31 g ai/ha, visual rating, scale 0 to 100 (0 no effect, 100 complete control), 13 to 15 days
[7] = 62 g ai/ha, scale 0 to 100 (0 no effect, 100 complete control), 13 to 15 days
[8] = 125 g ai/ha, visual injury, 0 to 100 scale, approx. 10 days
[9] = 500 g ai/ha, visual injury after approx. 10 days, 0 to 100 scale (0 no effect, 100 complete control)
[10] = Postemergence, 500 g ai/ha, 0 to 100 scale (0 no effect, 100 complete control)
[11] = postemergence, 125 g ai/ha, about 10 days, visual rating on 0 to 100 scale (0 no effect, 100 complete control)
[12] = 250 g ai/ha, scale 0 to 100, 0 is no effect, 100 is complete control
[13] = Postemergence, 125 g ai/ha, 0 to 100 scale, 0 no effect, 100 complete control

CCCc1cc(C(=O)NCC)nn1Cc1cc(C(F)(F)F)nn1C [Compound 129]
Plant response rating (scale of 0 to 100), Galium (galium; Preemergence, 250 g ai/ha): 100
Galium plant response rating (galium; [6]): 100
Galium plant response rating (galium; [7]): 100
Plant response rating, Galium (galium; 13 to 15 days): 95
Plant response rating (scale of 0 to 100), Soybean (soybean; Preemergence, 250 g ai/ha): 98
Soybean plant response rating (soybean; [6]): 40
Soybean plant response rating (soybean; [7]): 55
Plant response rating, Soybean (soybean; 13 to 15 days): 98
Plant response rating, Sedge, Umbrella (sedge, umbrella): 95
Pigweed plant response rating (pigweed [1]; [8]): 100
Pigweed plant response rating (pigweed [1]; [9]): 100
Velvetleaf plant response rating (velvetleaf; [10]): 100
Velvetleaf plant response rating (velvetleaf; [11]): 90
Corn plant response rating (corn; [10]): 80
Corn plant response rating (corn; [11]): 50
Plant response rating (scale of 0 to 100), Crabgrass, Large (crabgrass, large; Preemergence, 250 g ai/ha): 100
Crabgrass, Large plant response rating (crabgrass, large; [6]): 90
Crabgrass, Large plant response rating (crabgrass, large; [7]): 100
Plant response rating, Crabgrass, Large (crabgrass, large; 13 to 15 days): 100
Plant response rating (scale of 0 to 100), Pigweed (pigweed [2]; Preemergence, 250 g ai/ha): 100
Pigweed plant response rating (pigweed [2]; [6]): 100
Pigweed plant response rating (pigweed [2]; [7]): 100
Plant response rating, Pigweed (pigweed [2]; 13 to 15 days): 100
Plant response rating (scale of 0 to 100), Nutsedge, Yellow (nutsedge, yellow; Preemergence, 250 g ai/ha): 75
Nutsedge, Yellow plant response rating (nutsedge, yellow; [6]): 5
Nutsedge, Yellow plant response rating (nutsedge, yellow; [7]): 25
Plant response rating, Nutsedge, Yellow (nutsedge, yellow; 13 to 15 days): 60
Plant response rating (scale of 0 to 100), Ryegrass, Italian (ryegrass, Italian; Preemergence, 250 g ai/ha): 95
Ryegrass, Italian plant response rating (ryegrass, Italian; [6]): 5
Ryegrass, Italian plant response rating (ryegrass, Italian; [7]): 90
Plant response rating, Ryegrass, Italian (ryegrass, Italian; 13 to 15 days): 95
Plant response rating (scale of 0 to 100), Morningglory (morningglory [3]; Preemergence, 250 g ai/ha): 100
Morningglory plant response rating (morningglory [3]; [6]): 45
Morningglory plant response rating (morningglory [3]; [7]): 98
Plant response rating, Morningglory (morningglory [3]; 13 to 15 days): 100
Morningglory plant response rating (morningglory [4]; [10]): 100
Morningglory plant response rating (morningglory [4]; [11]): 90
Foxtail, Giant plant response rating (foxtail, giant; [10]): 90
Foxtail, Giant plant response rating (foxtail, giant; [11]): 80
Morningglory plant response rating (morningglory [5]; [8]): 100
Morningglory plant response rating (morningglory [5]; [9]): 100

CCCNC(=O)c1cc(CCC)n(Cc2cc(C(F)(F)F)nn2C)n1 [Compound 198]
Galium plant response rating (galium; [6]): 98
Galium plant response rating (galium; [7]): 95
Plant response rating, Galium (galium; 13 to 15 days): 100
Galium plant response rating (galium; [12]): 100
Soybean plant response rating (soybean; [6]): 75
Soybean plant response rating (soybean; [7]): 90
Plant response rating, Soybean (soybean; 13 to 15 days): 98
Soybean plant response rating (soybean; [12]): 98
Plant response rating, Sedge, Umbrella (sedge, umbrella): 100
Pigweed plant response rating (0 to 100 scale) (pigweed [1]; 125 g ai/ha): 100
Pigweed plant response rating (pigweed [1]; [9]): 100
Velvetleaf plant response rating (velvetleaf; [13]): 30
Velvetleaf plant response rating (velvetleaf; [10]): 100
Corn plant response rating (corn; [10]): 90
Corn plant response rating (corn; [11]): 90
Crabgrass, Large plant response rating (crabgrass, large; [6]): 98
Crabgrass, Large plant response rating (crabgrass, large; [7]): 100
Plant response rating, Crabgrass, Large (crabgrass, large; 13 to 15 days): 100
Crabgrass, Large plant response rating (crabgrass, large; [12]): 100
Pigweed plant response rating (pigweed [2]; [6]): 100
Pigweed plant response rating (pigweed [2]; [7]): 100
Plant response rating, Pigweed (pigweed [2]; 13 to 15 days): 100
Pigweed plant response rating (pigweed [2]; [12]): 100
Nutsedge, Yellow plant response rating (nutsedge, yellow; [6]): 5
Nutsedge, Yellow plant response rating (nutsedge, yellow; [7]): 15
Plant response rating, Nutsedge, Yellow (nutsedge, yellow; 13 to 15 days): 30
Nutsedge, Yellow plant response rating (nutsedge, yellow; [12]): 65
Ryegrass, Italian plant response rating (ryegrass, Italian; [6]): 25
Ryegrass, Italian plant response rating (ryegrass, Italian; [7]): 70
Plant response rating, Ryegrass, Italian (ryegrass, Italian; 13 to 15 days): 90
Ryegrass, Italian plant response rating (ryegrass, Italian; [12]): 90
Morningglory plant response rating (morningglory [3]; [6]): 95
Morningglory plant response rating (morningglory [3]; [7]): 100
Plant response rating, Morningglory (morningglory [3]; 13 to 15 days): 100
Morningglory plant response rating (morningglory [3]; [12]): 100
Morningglory plant response rating (morningglory [4]; [13]): 80
Morningglory plant response rating (morningglory [4]; [10]): 100
Foxtail, Giant plant response rating (foxtail, giant; [10]): 100
Foxtail, Giant plant response rating (foxtail, giant; [11]): 90
Morningglory plant response rating (0 to 100 scale) (morningglory [5]; 125 g ai/ha): 100
Morningglory plant response rating (morningglory [5]; [9]): 100

CCc1cc(C(=O)NC2CC2)nn1Cc1ccnc(OCC(F)(F)F)c1 [Compound 200]
Galium plant response rating (galium; [6]): 85
Galium plant response rating (galium; [7]): 100
Plant response rating, Galium (galium; 13 to 15 days): 100
Galium plant response rating (galium; [12]): 100
Soybean plant response rating (soybean; [6]): 50
Soybean plant response rating (soybean; [7]): 70
Plant response rating, Soybean (soybean; 13 to 15 days): 70
Soybean plant response rating (soybean; [12]): 85
Plant response rating, Sedge, Umbrella (sedge, umbrella): 90
Pigweed plant response rating (0 to 100 scale) (pigweed [1]; 125 g ai/ha): 100
Pigweed plant response rating (pigweed [1]; [9]): 100
Velvetleaf plant response rating (velvetleaf; [13]): 80
Velvetleaf plant response rating (velvetleaf; [10]): 90
Corn plant response rating (corn; [10]): 100
Corn plant response rating (corn; [11]): 80
Crabgrass, Large plant response rating (crabgrass, large; [6]): 100
Crabgrass, Large plant response rating (crabgrass, large; [7]): 100
Plant response rating, Crabgrass, Large (crabgrass, large; 13 to 15 days): 100
Crabgrass, Large plant response rating (crabgrass, large; [12]): 100
Pigweed plant response rating (pigweed [2]; [6]): 100
Pigweed plant response rating (pigweed [2]; [7]): 100
Plant response rating, Pigweed (pigweed [2]; 13 to 15 days): 100
Pigweed plant response rating (pigweed [2]; [12]): 100
Nutsedge, Yellow plant response rating (nutsedge, yellow; [6]): 20
Nutsedge, Yellow plant response rating (nutsedge, yellow; [7]): 25
Plant response rating, Nutsedge, Yellow (nutsedge, yellow; 13 to 15 days): 40
Nutsedge, Yellow plant response rating (nutsedge, yellow; [12]): 60
Ryegrass, Italian plant response rating (ryegrass, Italian; [6]): 0
Ryegrass, Italian plant response rating (ryegrass, Italian; [7]): 90
Plant response rating, Ryegrass, Italian (ryegrass, Italian; 13 to 15 days): 90
Ryegrass, Italian plant response rating (ryegrass, Italian; [12]): 95
Morningglory plant response rating (morningglory [3]; [6]): 55
Morningglory plant response rating (morningglory [3]; [7]): 95
Plant response rating, Morningglory (morningglory [3]; 13 to 15 days): 98
Morningglory plant response rating (morningglory [3]; [12]): 100
Morningglory plant response rating (morningglory [4]; [13]): 100
Morningglory plant response rating (morningglory [4]; [10]): 100
Foxtail, Giant plant response rating (foxtail, giant; [10]): 100
Foxtail, Giant plant response rating (foxtail, giant; [11]): 100
Morningglory plant response rating (0 to 100 scale) (morningglory [5]; 125 g ai/ha): 40
Morningglory plant response rating (morningglory [5]; [9]): 100
